# Tested on: HCV 1b-Con1 replicon
# Test: HCV 1b-Con1 replicon assay in the presence of 5% FBS
# Type: cell-based
# Conditions: Hepatitis C virus
row,SMILES,EC50
1,"COC(=O)N[C@H](C(=O)N1CCC[C@H]1c1nc2ccc([C@H]3CC[C@H](c4ccc5nc([C@@H]6CCCN6C(=O)[C@@H](NC(=O)OC)C(C)C)[nH]c5c4)N3c3cc(F)c(N4CCC(c5ccc(OC)cc5)CC4)c(F)c3)cc2[nH]1)C(C)C [Example 4.34, methyl {(2S)-1-[(2S)-2-{6-[(2R,5R)-1-{3,5-difluoro-4-[4-(4-methoxyphenyl)piperidin-1-yl]phenyl}-5-{2-[(2S)-1-{(2S)-2-[(methoxycarbonyl)amino]-3-methylbutanoyl}pyrrolidin-2-yl]-1H-benzimidazol-6-yl}pyrrolidin-2-yl]-1H-benzimidazol-2-yl}pyrrolidin-1-yl]-3-methyl-1-oxobutan-2-yl}carbamate]",< 0.1 nM
2,"COC(=O)N[C@H](C(=O)N1CCC[C@H]1c1nc2ccc([C@H]3CC[C@H](c4ccc5nc([C@@H]6CCCN6C(=O)[C@@H](NC(=O)OC)C(C)C)[nH]c5c4)N3c3cc(F)c(N4CCC(F)(c5ccccc5)CC4)c(F)c3)cc2[nH]1)C(C)C [Example 4.35, methyl {(2S)-1-[(2S)-2-{6-[(2R,5R)-1-[3,5-difluoro-4-(4-fluoro-4-phenylpiperidin-1-yl)phenyl]-5-{2-[(2S)-1-{(2S)-2-[(methoxycarbonyl)amino]-3-methylbutanoyl}pyrrolidin-2-yl]-1H-benzimidazol-6-yl}pyrrolidin-2-yl]-1H-benzimidazol-2-yl}pyrrolidin-1-yl]-3-methyl-1-oxobutan-2-yl}carbamate]",< 0.1 nM
3,"COC(=O)N[C@H](C(=O)N1CCC[C@H]1c1nc2ccc([C@H]3CC[C@H](c4ccc5nc([C@@H]6CCCN6C(=O)[C@@H](NC(=O)OC)C(C)C)[nH]c5c4)N3c3ccc(N4CCC(F)(c5ccccc5)CC4)cc3)cc2[nH]1)C(C)C [Example 4.36, methyl {(2S)-1-[(2S)-2-{6-[(2R,5R)-1-[4-(4-fluoro-4-phenylpiperidin-1-yl)phenyl]-5-{2-[(2S)-1-{(2S)-2-[(methoxycarbonyl)amino]-3-methylbutanoyl}pyrrolidin-2-yl]-1H-benzimidazol-6-yl}pyrrolidin-2-yl]-1H-benzimidazol-2-yl}pyrrolidin-1-yl]-3-methyl-1-oxobutan-2-yl}carbamate]",< 0.1 nM
4,"COC(=O)N[C@H](C(=O)N1CCC[C@H]1c1nc2cc([C@H]3CC[C@H](c4cc5nc([C@@H]6CCCN6C(=O)[C@@H](NC(=O)OC)C(C)C)[nH]c5cc4F)N3c3cc(F)c(N4CCC(C(F)(c5ccccc5)c5ccccc5)CC4)c(F)c3)c(F)cc2[nH]1)C(C)C [Example 4.37, methyl {(2S)-1-[(2S)-2-{5-[(2R,5R)-1-(3,5-difluoro-4-{4-[fluoro(diphenyl)methyl]piperidin-1-yl}phenyl)-5-{6-fluoro-2-[(2S)-1-{(2S)-2-[(methoxycarbonyl)amino]-3-methylbutanoyl}pyrrolidin-2-yl]-1H-benzimidazol-5-yl}pyrrolidin-2-yl]-6-fluoro-1H-benzimidazol-2-yl}pyrrolidin-1-yl]-3-methyl-1-oxobutan-2-yl}carbamate]",< 0.1 nM
5,"COC(=O)N[C@H](C(=O)N1CCC[C@H]1c1nc2cc([C@H]3CC[C@H](c4cc5nc([C@@H]6CCCN6C(=O)[C@@H](NC(=O)OC)[C@@H](C)OC)[nH]c5cc4F)N3c3cc(F)c(N4CCC(c5ccccc5)CC4)c(F)c3)c(F)cc2[nH]1)[C@@H](C)OC [Example 4.38, methyl {(2S,3R)-1-[(2S)-2-{5-[(2R,5R)-1-[3,5-difluoro-4-(4-phenylpiperidin-1-yl)phenyl]-5-(6-fluoro-2-{(2S)-1-[N-(methoxycarbonyl)-O-methyl-L-threonyl]pyrrolidin-2-yl}-1H-benzimidazol-5-yl)pyrrolidin-2-yl]-6-fluoro-1H-benzimidazol-2-yl}pyrrolidin-1-yl]-3-methoxy-1-oxobutan-2-yl}carbamate]",< 0.1 nM
6,"COC(=O)N[C@H](C(=O)N1CCC[C@H]1c1nc2cc([C@H]3CC[C@H](c4cc5nc([C@@H]6CCCN6C(=O)[C@@H](NC(=O)OC)C6CCOCC6)[nH]c5cc4F)N3c3cc(F)c(N4CCC(c5ccccc5)CC4)c(F)c3)c(F)cc2[nH]1)C1CCOCC1 [Example 4.39, dimethyl ({(2R,5R)-1-[3,5-difluoro-4-(4-phenylpiperidin-1-yl)phenyl]pyrrolidine-2,5-diyl}bis{(6-fluoro-1H-benzimidazole-5,2-diyl)(2S)pyrrolidine-2,1-diyl[(1S)-2-oxo-1-(tetrahydro-2H-pyran-4-yl)ethane-2,1-diyl]})biscarbamate]",< 0.1 nM
7,"COC(=O)N[C@H](C(=O)N1CCC[C@H]1c1nc2cc([C@H]3CC[C@H](c4cc5nc([C@@H]6CCCN6C(=O)[C@@H](NC(=O)OC)C6CCCC6)[nH]c5cc4F)N3c3cc(F)c(N4CCC(c5ccccc5)CC4)c(F)c3)c(F)cc2[nH]1)C1CCCC1 [Example 4.40, dimethyl ({(2R,5R)-1-[3,5-difluoro-4-(4-phenylpiperidin-1-yl)phenyl]pyrrolidine-2,5-diyl}bis{(6-fluoro-1H-benzimidazole-5,2-diyl)(2S)pyrrolidine-2,1-diyl[(1S)-1-cyclopentyl-2-oxoethane-2,1-diyl]})biscarbamate]",< 0.1 nM
8,"COC(=O)N[C@H](C(=O)N1CCC[C@H]1c1nc2cc([C@H]3CC[C@H](c4ccc5[nH]c([C@@H]6CCCN6C(=O)[C@@H](NC(=O)OC)C(C)C)nc5c4)N3c3ccc(OCc4ccccc4)cc3)ccc2[nH]1)C(C)C [Example 4.41, methyl {(2S)-1-[(2S)-2-{5-[(2R,5R)-1-[4-(benzyloxy)phenyl]-5-{2-[(2S)-1-{(2S)-2-[(methoxycarbonyl)amino]-3-methylbutanoyl}pyrrolidin-2-yl]-1H-benzimidazol-5-yl}pyrrolidin-2-yl]-1H-benzimidazol-2-yl}pyrrolidin-1-yl]-3-methyl-1-oxobutan-2-yl}carbamate]",< 0.1 nM
9,"COC(=O)N[C@H](C(=O)N1CCC[C@H]1c1nc2cc([C@H]3CC[C@H](c4cc5nc([C@@H]6CCCN6C(=O)[C@@H](NC(=O)OC)C(C)C)[nH]c5cc4F)N3c3cc(F)c(N4CCN(c5ccc(C(F)(F)F)cc5)CC4)c(F)c3)c(F)cc2[nH]1)C(C)C [Example 4.42, methyl {(2S)-1-[(2S)-2-{5-[(2R,5R)-1-(3,5-difluoro-4-{4-[4-(trifluoromethyl)phenyl]piperazin-1-yl}phenyl)-5-{6-fluoro-2-[(2S)-1-{(2S)-2-[(methoxycarbonyl)amino]-3-methylbutanoyl}pyrrolidin-2-yl]-1H-benzimidazol-5-yl}pyrrolidin-2-yl]-6-fluoro-1H-benzimidazol-2-yl}pyrrolidin-1-yl]-3-methyl-1-oxobutan-2-yl}carbamate]",< 0.1 nM
10,"COC(=O)N[C@H](C(=O)N1CCC[C@H]1c1nc2ccc([C@H]3CC[C@H](c4cc5[nH]c([C@@H]6CCCN6C(=O)[C@@H](NC(=O)OC)C(C)C)nc5cc4F)N3c3cc(F)c(N4CCCCC4)c(F)c3)cc2[nH]1)C(C)C [Example 4.43, methyl {(2S)-1-[(2S)-2-{6-[(2R,5R)-1-[3,5-difluoro-4-(piperidin-1-yl)phenyl]-5-{5-fluoro-2-[(2S)-1-{(2S)-2-[(methoxycarbonyl)amino]-3-methylbutanoyl}pyrrolidin-2-yl]-1H-benzimidazol-6-yl}pyrrolidin-2-yl]-1H-benzimidazol-2-yl}pyrrolidin-1-yl]-3-methyl-1-oxobutan-2-yl}carbamate]",< 0.1 nM
11,"COC(=O)N[C@H](C(=O)N1CCC[C@H]1c1nc2cc(F)c([C@H]3CC[C@H](c4cc5[nH]c([C@@H]6CCCN6C(=O)[C@@H](NC(=O)OC)C(C)C)nc5cc4F)N3c3cc(F)c(N4CCC(Cc5ccccc5)CC4)c(F)c3)cc2[nH]1)C(C)C [Example 4.44, methyl {(2S)-1-[(2S)-2-{6-[(2R,5R)-1-[4-(4-benzylpiperidin-1-yl)-3,5-difluorophenyl]-5-{5-fluoro-2-[(2S)-1-{(2S)-2-[(methoxycarbonyl)amino]-3-methylbutanoyl}pyrrolidin-2-yl]-1H-benzimidazol-6-yl}pyrrolidin-2-yl]-5-fluoro-1H-benzimidazol-2-yl}pyrrolidin-1-yl]-3-methyl-1-oxobutan-2-yl}carbamate]",< 0.1 nM
12,"COC(=O)N[C@H](C(=O)N1CCC[C@H]1c1nc2cc(F)c([C@H]3CC[C@H](c4cc5[nH]c([C@@H]6CCCN6C(=O)[C@@H](NC(=O)OC)C6CCCC6)nc5cc4F)N3c3cc(F)c(N4CCN(c5ccc(C(F)(F)F)cc5)CC4)c(F)c3)cc2[nH]1)C1CCCC1 [Example 4.45, dimethyl ([(2R,5R)-1-(3,5-difluoro-4-{4-[4-(trifluoromethyl)phenyl]piperazin-1-yl}phenyl)pyrrolidine-2,5-diyl]bis{(5-fluoro-1H-benzimidazole-6,2-diyl)(2S)pyrrolidine-2,1-diyl[(1S)-1-cyclopentyl-2-oxoethane-2,1-diyl]})bis carbamate]",< 0.1 nM
13,"COC(=O)N[C@H](C(=O)N1CCC[C@H]1c1nc2cc(F)c([C@H]3CC[C@H](c4cc5[nH]c([C@@H]6CCCN6C(=O)[C@@H](NC(=O)OC)C6CCOCC6)nc5cc4F)N3c3cc(F)c(N4CCN(c5ccc(C(F)(F)F)cc5)CC4)c(F)c3)cc2[nH]1)C1CCOCC1 [Example 4.46, dimethyl ([(2R,5R)-1-(3,5-difluoro-4-{4-[4-(trifluoromethyl)phenyl]piperazin-1-yl}phenyl)pyrrolidine-2,5-diyl]bis{(5-fluoro-1H-benzimidazole-6,2-diyl)(2S)pyrrolidine-2,1-diyl[(1S)-2-oxo-1-(tetrahydro-2H-pyran-4-yl)ethane-2,1-diyl]})biscarbamate]",< 0.1 nM
14,"COC(=O)N[C@H](C(=O)N1CCC[C@H]1c1nc2ccc([C@H]3CC[C@H](c4ccc5nc([C@@H]6CCCN6C(=O)[C@@H](NC(=O)OC)C(C)C)[nH]c5c4)N3c3cc(F)c(N4CCC(Cc5ccccc5)CC4)c(F)c3)cc2[nH]1)C(C)C [Example 4.47, methyl {(2S)-1-[(2S)-2-{6-[(2R,5R)-1-[4-(4-benzylpiperidin-1-yl)-3,5-difluorophenyl]-5-{2-[(2S)-1-{(2S)-2-[(methoxycarbonyl)amino]-3-methylbutanoyl}pyrrolidin-2-yl]-1H-benzimidazol-6-yl}pyrrolidin-2-yl]-1H-benzimidazol-2-yl}pyrrolidin-1-yl]-3-methyl-1-oxobutan-2-yl}carbamate]",< 0.1 nM
